Reference: US5326787A, “Cycloalkyl N-hydroxy derivatives having lipoxygenase inhibitory activity” (Abbott Laboratories, priority 1993, dated 1994)

What was measured:
5-Lipoxygenase = target: T1, 5-Lipoxygenase (Homo sapiens, UniProt P09917); assay: Calcium ionophore-induced LTB4 biosynthesis in human whole blood; type: cell-based; conditions: human heparinized whole blood, 15 min preincubation at 37° C., A23187 8.3 μM, 30 min, LTB4 by radioimmunoassay; read-out: IC50 against 5-Lipoxygenase from Stimulated LTB4 Formation in Human Whole Blood
T1 construct: from tissue; host or cells: human heparinized whole blood (endogenous enzyme of the blood leukocytes)
T1 sequence (P09917 1-674): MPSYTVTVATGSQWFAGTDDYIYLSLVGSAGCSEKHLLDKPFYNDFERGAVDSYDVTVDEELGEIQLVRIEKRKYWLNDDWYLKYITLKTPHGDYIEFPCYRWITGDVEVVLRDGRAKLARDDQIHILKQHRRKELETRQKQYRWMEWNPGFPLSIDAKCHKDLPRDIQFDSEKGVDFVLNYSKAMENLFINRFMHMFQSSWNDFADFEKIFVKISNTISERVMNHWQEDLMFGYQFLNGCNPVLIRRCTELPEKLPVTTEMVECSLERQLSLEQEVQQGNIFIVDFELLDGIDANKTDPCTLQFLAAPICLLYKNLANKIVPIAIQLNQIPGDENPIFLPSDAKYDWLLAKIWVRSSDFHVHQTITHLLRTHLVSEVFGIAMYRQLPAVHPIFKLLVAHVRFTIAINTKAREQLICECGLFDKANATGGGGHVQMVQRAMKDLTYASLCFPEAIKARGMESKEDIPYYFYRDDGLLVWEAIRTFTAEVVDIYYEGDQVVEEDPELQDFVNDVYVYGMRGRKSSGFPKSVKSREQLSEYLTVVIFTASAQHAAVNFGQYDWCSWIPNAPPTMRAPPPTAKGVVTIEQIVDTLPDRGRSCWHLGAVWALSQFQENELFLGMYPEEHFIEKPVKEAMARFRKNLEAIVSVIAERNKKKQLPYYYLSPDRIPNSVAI
Procedure: Inhibition of leukotriene biosynthesis was evaluated in an assay, involving calcium ionophore-induced LTB4 biosynthesis expressed human whole blood. […] The methanol extract was analyzed for LTB4 using a commercially available radioimmunoassay.

[1] = system: biosynthesis of leukotrienes; assay: Inhibition of leukotriene biosynthesis in vivo after oral administration, rat peritoneal anaphylaxis model; conditions: percent inhibition vs mean of control group, oral gavage 100 μmoles/kg one hour prior to antigen challenge, peritoneal fluids 15 minutes after challenge
Procedure: Inhibition of the biosynthesis of leukotrienes in vivo after oral administration of compound was determined using a rat peritoneal anaphylaxis model in a similar manner as that described by Young and coworkers (Young, P. R.; Dyer, R. D.; Carter, G. W. Fed. Proc., Fed. Am. Soc. Exp. Biol. 1985, 44, 1185). In this model rats were injected intraperitoneally (ip) with rabbit antibody to bovine serum albumin (BSA) and three hours later injected ip with BSA to induce an antigen-antibody response. Rats were sacrificed 15 minutes after this challenge and the peritoneal fluids were collected and analyzed for leukotriene levels. Test compounds were administered by gavage one hour prior to the antigen challenge. Percent inhibition values were determined by comparing the treatment group to the mean of the control group.

| IC50 (5-Lipoxygenase) [nM] | SMILES | inhibition at 100 µmol/kg [1] [%] |
| --- | --- | --- |
| 1100 | NC(=O)N(O)CC1CCCCC1 [Example 4, N-hydroxy-N-1-(1-cyclohexyl)methylurea] | 64 |
| 700 | NC(=O)N(O)CC1CCCC1 [Example 3, N-cyclopentylmethyl-N-hydroxyurea] | 83 |
| < 1500 | NC(=O)N(O)CC1CCCCCC1 [Example 5, N-hydroxy-N-1-(1-cycloheptyl)methylurea] |  |

More lines, now with the values behind:

| SMILES | IC50 (5-Lipoxygenase) [nM] | inhibition at 100 µmol/kg [1] [%] |
| --- | --- | --- |
| NC(=O)N(O)C[C@H]1C[C@@H]1C1CC1 (relative stereo) [Example 1, N-1-(trans-2-cyclopropylcyclopropylmethyl)-N-hydroxyurea] | < 300 | 96 |
| NC(=O)N(O)CC1CCC1 [Example 2, N-cyclobutylmethyl-N-hydroxyurea] | 900 | 92 |
